Results taken from ChEMBL document CHEMBL3994665, “Pyrano[2,3,4-cd]indole as a Scaffold for Selective Nonbasic 5-HT6R Ligands” (ACS Med Chem Lett, 2017).

Experiments:
[1] = molecular target: T1, 5-hydroxytryptamine receptor 6 (Homo sapiens, UniProt P50406); assay: Displacement of [3H]-LSD from 5-HT6 receptor (unknown origin)
[2] = molecular target: T2, 5-hydroxytryptamine receptor 1A (Homo sapiens, UniProt P08908); assay: Displacement of [3H]-8-OH-DPAT from 5HT1A receptor (unknown origin)
T2 sequence (P08908 whole entry): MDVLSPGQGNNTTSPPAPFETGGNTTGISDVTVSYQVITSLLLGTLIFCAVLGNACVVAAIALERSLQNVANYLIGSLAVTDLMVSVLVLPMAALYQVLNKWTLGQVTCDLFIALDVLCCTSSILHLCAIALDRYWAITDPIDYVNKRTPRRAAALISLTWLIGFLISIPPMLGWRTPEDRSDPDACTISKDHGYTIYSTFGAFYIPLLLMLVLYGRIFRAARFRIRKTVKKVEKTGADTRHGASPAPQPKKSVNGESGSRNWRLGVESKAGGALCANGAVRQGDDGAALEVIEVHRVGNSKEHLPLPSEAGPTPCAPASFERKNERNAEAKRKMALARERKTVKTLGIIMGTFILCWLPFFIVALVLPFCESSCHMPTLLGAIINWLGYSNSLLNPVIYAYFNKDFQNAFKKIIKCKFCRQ

[3] = molecular target: 5-hydroxytryptamine receptor 7 (Homo sapiens, UniProt P34969); assay: Displacement of [3H]-5-CT from 5-HT7b receptor (unknown origin)
D(2) dopamine receptor = D(2) dopamine receptor (Homo sapiens, UniProt P14416); assay: Displacement of [3H]-Raclopride from D2L receptor (unknown origin)
[4] = molecular target: 5-hydroxytryptamine receptor 2A (Homo sapiens, UniProt P28223); assay: Binding affinity to 5HT2A receptor (unknown origin)
[5] = molecular target: T1, 5-hydroxytryptamine receptor 6; assay: Antagonist activity at 5-HT6 receptor (unknown origin) expressed in HEK293 cells assessed as inhibition of 5-CT induced cAMP production after 30 mins by TR-FRET assay; format: functional, cell-based

Chain of 5-hydroxytryptamine receptor 7 (P34969 whole entry): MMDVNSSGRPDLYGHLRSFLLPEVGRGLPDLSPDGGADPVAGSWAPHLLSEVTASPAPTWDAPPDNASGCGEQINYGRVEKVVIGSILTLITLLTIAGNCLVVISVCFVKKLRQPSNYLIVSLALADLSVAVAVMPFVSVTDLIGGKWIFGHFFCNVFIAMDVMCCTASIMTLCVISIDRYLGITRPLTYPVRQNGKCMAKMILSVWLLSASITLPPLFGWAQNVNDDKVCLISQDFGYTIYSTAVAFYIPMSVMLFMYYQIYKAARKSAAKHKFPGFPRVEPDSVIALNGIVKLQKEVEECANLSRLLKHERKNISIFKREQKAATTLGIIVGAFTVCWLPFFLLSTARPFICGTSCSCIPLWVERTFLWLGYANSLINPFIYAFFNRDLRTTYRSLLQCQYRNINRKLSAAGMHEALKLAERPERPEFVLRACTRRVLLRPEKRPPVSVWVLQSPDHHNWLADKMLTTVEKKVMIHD
Chain of D(2) dopamine receptor (P14416 whole entry): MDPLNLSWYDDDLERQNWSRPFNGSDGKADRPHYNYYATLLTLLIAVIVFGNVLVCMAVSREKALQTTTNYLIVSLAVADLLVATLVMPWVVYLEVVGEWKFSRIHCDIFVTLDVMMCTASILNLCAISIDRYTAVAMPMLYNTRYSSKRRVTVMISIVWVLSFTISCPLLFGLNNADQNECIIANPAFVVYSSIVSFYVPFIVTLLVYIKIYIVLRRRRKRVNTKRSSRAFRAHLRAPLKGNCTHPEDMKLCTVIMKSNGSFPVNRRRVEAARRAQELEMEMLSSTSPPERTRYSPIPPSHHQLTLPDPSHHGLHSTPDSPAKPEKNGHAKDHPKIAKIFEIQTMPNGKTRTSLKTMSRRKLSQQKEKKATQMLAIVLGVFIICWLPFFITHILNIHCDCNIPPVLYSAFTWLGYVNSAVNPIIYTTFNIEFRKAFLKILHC
T1 sequence (P50406 whole entry): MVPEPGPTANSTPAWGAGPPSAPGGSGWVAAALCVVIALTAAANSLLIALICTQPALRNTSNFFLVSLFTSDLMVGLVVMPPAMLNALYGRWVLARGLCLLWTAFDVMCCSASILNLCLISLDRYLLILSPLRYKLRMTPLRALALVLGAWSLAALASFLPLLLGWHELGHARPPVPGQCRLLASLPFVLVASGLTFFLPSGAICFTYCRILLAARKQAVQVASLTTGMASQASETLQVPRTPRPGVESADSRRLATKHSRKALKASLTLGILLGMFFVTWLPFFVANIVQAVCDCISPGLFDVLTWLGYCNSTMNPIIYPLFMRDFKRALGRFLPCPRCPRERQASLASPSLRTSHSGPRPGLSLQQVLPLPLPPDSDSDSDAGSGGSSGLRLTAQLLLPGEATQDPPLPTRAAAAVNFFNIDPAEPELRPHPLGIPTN
Chain of 5-hydroxytryptamine receptor 2A (P28223 whole entry): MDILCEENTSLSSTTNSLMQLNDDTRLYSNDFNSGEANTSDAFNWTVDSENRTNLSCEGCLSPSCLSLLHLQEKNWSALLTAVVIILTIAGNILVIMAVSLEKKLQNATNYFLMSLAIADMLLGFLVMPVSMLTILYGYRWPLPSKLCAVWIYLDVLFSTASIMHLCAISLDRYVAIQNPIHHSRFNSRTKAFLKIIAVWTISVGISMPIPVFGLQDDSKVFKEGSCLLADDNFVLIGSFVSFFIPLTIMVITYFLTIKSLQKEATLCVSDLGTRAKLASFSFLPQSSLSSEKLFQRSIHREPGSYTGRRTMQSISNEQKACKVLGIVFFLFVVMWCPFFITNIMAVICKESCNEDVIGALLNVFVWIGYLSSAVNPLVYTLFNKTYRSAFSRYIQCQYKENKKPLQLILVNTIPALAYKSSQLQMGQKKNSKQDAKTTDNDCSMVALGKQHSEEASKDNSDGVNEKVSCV

Ki [1] [µM]	Ki [2] [µM]	Ki [3] [µM]	Ki (D(2) dopamine receptor) [µM]	SMILES	Ki [4] [µM]	Kb [5] [µM]
0.028	> 10	> 10	4.35	CCN(CC)CC1=Cc2cn(S(=O)(=O)c3ccccc3)c3cccc(c23)O1	1.7	
0.266	> 10	> 10	5.16	O=CC1=Cc2cn(S(=O)(=O)c3cccc4ccccc34)c3cccc(c23)O1		
0.005	> 10	3.69	6.7	CN(C)CC1=Cc2cn(S(=O)(=O)c3ccccc3)c3cccc(c23)O1	0.065	
0.001	5.97	0.438	1.49	CN(C)CC1=Cc2cn(S(=O)(=O)c3cccc4ccccc34)c3cccc(c23)O1	0.489	

The remaining lines, values behind:

SMILES	Ki [1] [µM]	Ki [2] [µM]	Ki [3] [µM]	Ki (D(2) dopamine receptor) [µM]	Ki [4] [µM]	Kb [5] [µM]
N#CC1=Cc2cn(S(=O)(=O)c3cccc4ccccc34)c3cccc(c23)O1	0.755	> 10	> 10	> 10		
O=S(=O)(c1ccccc1)n1cc2c3c(cccc31)OC(CO)=C2	0.036	> 10	> 10	> 10	> 10	0.016
CC1=C(CO)Oc2cccc3c2c1cn3S(=O)(=O)c1ccccc1	0.052	> 10	> 10	> 10	> 10	
CC1=C(CO)Oc2cccc3c2c1cn3S(=O)(=O)c1cccc2ccccc12	0.02	> 10	> 10	> 10	> 10	
O=S(=O)(c1cccc2ccccc12)n1cc2c3c(cccc31)OC(CO)=C2	0.004		> 10	4.29	> 10	
